# Reference: BindingDB's records for doi:10.1016/s0960-894x(02)00516-4 (Atherogenics, 2002)
# Assay: Inhibition of TNF-alpha inducible Vascular cell adhesion molecule-1 expression.
row,SMILES,IC50 [µM]
1,"CC(C)(Sc1cc(C(C)(C)C)c(O)c(C(C)(C)C)c1)Sc1cc(C(C)(C)C)c(OC(=O)C(F)(F)C(F)(F)C(F)(F)C(=O)O)c(C(C)(C)C)c1 [2,2,3,3,4,4-Hexafluoro-pentanedioic acid mono-{2,6-di-tert-butyl-4-[1-(3,5-di-tert-butyl-4-hydroxy-phenylsulfanyl)-1-methyl-ethylsulfanyl]-phenyl} ester]",100
2,"CC(=O)O/C(=C\C(=O)Oc1c(C(C)(C)C)cc(SC(C)(C)Sc2cc(C(C)(C)C)c(O)c(C(C)(C)C)c2)cc1C(C)(C)C)C(=O)O [2,6-di(tert-butyl)-4-{1-[3,5-di(tert-butyl)-4-hydroxyphenylsulfanyl]-1-methylethylsulfanyl}phenyl 3-carboxylicacid-3-methylcarbonyloxy-(E)-2-propenoate]",17
3,"CC(C)(Sc1cc(C(C)(C)C)c(O)c(C(C)(C)C)c1)Sc1cc(C(C)(C)C)c(O)c(C(C)(C)C)c1 [2,6-di-tert-butyl-4-(2-(3,5-di-tert-butyl-4-hydroxyphenylthio)propan-2-ylthio)phenol]",> 50
4,"CC(C)(Sc1cc(C(C)(C)C)c(O)c(C(C)(C)C)c1)Sc1cc(C(C)(C)C)c(OC(=O)CC(O)CO)c(C(C)(C)C)c1 (stereo not drawn) [3,4-Dihydroxy-butyric acid 2,6-di-tert-butyl-4-[1-(3,5-di-tert-butyl-4-hydroxy-phenylsulfanyl)-1-methyl-ethylsulfanyl]-phenyl ester]",8
5,"CC(C)(Sc1cc(C(C)(C)C)c(O)c(C(C)(C)C)c1)Sc1cc(C(C)(C)C)c(OC(=O)CCO)c(C(C)(C)C)c1 [3-Hydroxy-propionic acid 2,6-di-tert-butyl-4-[1-(3,5-di-tert-butyl-4-hydroxy-phenylsulfanyl)-1-methyl-ethylsulfanyl]-phenyl ester]",30
6,"CC(C)(CO)CC(=O)Oc1c(C(C)(C)C)cc(SC(C)(C)Sc2cc(C(C)(C)C)c(O)c(C(C)(C)C)c2)cc1C(C)(C)C [4-Hydroxy-3,3-dimethyl-butyric acid 2,6-di-tert-butyl-4-[1-(3,5-di-tert-butyl-4-hydroxy-phenylsulfanyl)-1-methyl-ethylsulfanyl]-phenyl ester]",110
7,"CC(C)(Sc1cc(C(C)(C)C)c(O)c(C(C)(C)C)c1)Sc1cc(C(C)(C)C)c(OC(=O)CCCO)c(C(C)(C)C)c1 [4-Hydroxy-butyric acid 2,6-di-tert-butyl-4-[1-(3,5-di-tert-butyl-4-hydroxy-phenylsulfanyl)-1-methyl-ethylsulfanyl]-phenyl ester]",40
8,"CC(C)(Sc1cc(C(C)(C)C)c(O)c(C(C)(C)C)c1)Sc1cc(C(C)(C)C)c(OC(=O)CCCCO)c(C(C)(C)C)c1 [5-Hydroxy-pentanoicacid2,6-di-tert-butyl-4-[1-(3,5-di-tert-butyl-4-hydroxy-phenylsulfanyl)-1-methyl-ethylsulfanyl]-phenyl ester]",55
9,"CC(C)(Sc1cc(C(C)(C)C)c(O)c(C(C)(C)C)c1)Sc1cc(C(C)(C)C)c(OC(=O)C[C@@H](NC(=O)Cc2ccccc2)C(=O)O)c(C(C)(C)C)c1 [(R)-2-Phenylacetylamino-succinic acid 4-{2,6-di-tert-butyl-4-[1-(3,5-di-tert-butyl-4-hydroxy-phenylsulfanyl)-1-methyl-ethylsulfanyl]-phenyl} ester]",20
10,"CC(C)(Sc1cc(C(C)(C)C)c(O)c(C(C)(C)C)c1)Sc1cc(C(C)(C)C)c(OC(=O)[C@@H](O)CCC(=O)O)c(C(C)(C)C)c1 [(S)-2-Hydroxy-pentanedioic acid 1-{2,6-di-tert-butyl-4-[1-(3,5-di-tert-butyl-4-hydroxy-phenylsulfanyl)-1-methyl-ethylsulfanyl]-phenyl} ester]",25
11,"CC(C)(Sc1cc(C(C)(C)C)c(O)c(C(C)(C)C)c1)Sc1cc(C(C)(C)C)c(OC(=O)CO)c(C(C)(C)C)c1 [Hydroxy-acetic acid 2,6-di-tert-butyl-4-[1-(3,5-di-tert-butyl-4-hydroxy-phenylsulfanyl)-1-methyl-ethylsulfanyl]-phenyl ester]",30

# More lines, now with the values ahead:
row,IC50 [µM],SMILES
1,45,"CC(C)(Sc1cc(C(C)(C)C)c(O)c(C(C)(C)C)c1)Sc1cc(C(C)(C)C)c(OC(=O)CCCCCCC(=O)O)c(C(C)(C)C)c1 [Octanedioic acid mono-{2,6-di-tert-butyl-4-[1-(3,5-di-tert-butyl-4-hydroxy-phenylsulfanyl)-1-methyl-ethylsulfanyl]-phenyl} ester]"
2,> 50,"CC(C)(Sc1cc(C(C)(C)C)c(O)c(C(C)(C)C)c1)Sc1cc(C(C)(C)C)c(OC(=O)C(=O)O)c(C(C)(C)C)c1 [Oxalic acid mono-{2,6-di-tert-butyl-4-[1-(3,5-di-tert-butyl-4-hydroxy-phenylsulfanyl)-1-methyl-ethylsulfanyl]-phenyl} ester]"
3,9,"CC(C)(Sc1cc(C(C)(C)C)c(O)c(C(C)(C)C)c1)Sc1cc(C(C)(C)C)c(OC(=O)CCCC(=O)O)c(C(C)(C)C)c1 [Pentanedioic acid mono-{2,6-di-tert-butyl-4-[1-(3,5-di-tert-butyl-4-hydroxy-phenylsulfanyl)-1-methyl-ethylsulfanyl]-phenyl} ester]"
4,40,"COC(=O)CCC(=O)Oc1c(C(C)(C)C)cc(SC(C)(C)Sc2cc(C(C)(C)C)c(O)c(C(C)(C)C)c2)cc1C(C)(C)C [Succinic acid 2,6-di-tert-butyl-4-[1-(3,5-di-tert-butyl-4-hydroxy-phenylsulfanyl)-1-methyl-ethylsulfanyl]-phenyl ester methyl ester]"
5,> 50,"CC(C)(Sc1cc(C(C)(C)C)c(OC(=O)CCC(=O)O)c(C(C)(C)C)c1)Sc1cc(C(C)(C)C)c(OC(=O)CCC(=O)O)c(C(C)(C)C)c1 [Succinic acid mono-(2,6-di-tert-butyl-4-{1-[3,5-di-tert-butyl-4-(3-carboxy-propionyloxy)-phenylsulfanyl]-1-methyl-ethylsulfanyl}-phenyl) ester]"
6,6,"CC(C)(Sc1cc(C(C)(C)C)c(O)c(C(C)(C)C)c1)Sc1cc(C(C)(C)C)c(OC(=O)CCC(=O)O)c(C(C)(C)C)c1 [Succinic acid mono-{2,6-di-tert-butyl-4-[1-(3,5-di-tert-butyl-4-hydroxy-phenylsulfanyl)-1-methyl-ethylsulfanyl]-phenyl} ester]"
7,37,"CC(C)(Sc1cc(C(C)(C)C)c(O)c(C(C)(C)C)c1)Sc1cc(C(C)(C)C)c(OC(=O)COCC(=O)O)c(C(C)(C)C)c1 [{2,6-Di-tert-butyl-4-[1-(3,5-di-tert-butyl-4-hydroxy-phenylsulfanyl)-1-methyl-ethylsulfanyl]-phenoxycarbonylmethoxy}-acetic acid]"
